Source: patent US4362667A, “Optical isomers of 4-amino-N-(1-cyclohexyl-3-pyrrolidinyl)-N-methylbenzamide” (A. H. Robins Company, Inc., priority 1981, dated 1982)

Test system: rat
Assay: Cataleptic effects
Format: in vivo
Conditions: fumarate salt, expressed as free base
Excerpt: The procedure used for determing cataleptic effects of the fumarate salte was based on that of Tedeschi et al., Arch. Int. Pharmacodyn.

SMILES	cataleptic effect, Summary (IP)	cataleptic effect, Summary (PO)	cataleptic effect, Ed50 (estimated) (PO)
CN(C(=O)c1ccc(N)cc1)C1CCN(C2CCCCC2)C1 (racemic) [± racemate, 4-Amino-N-(1-cyclohexyl-3-pyrrolidinyl)-N-methylbenzamide]	NSE to 100	NSE to 200	
CN(C(=O)c1ccc(N)cc1)C1CCN(C2CCCCC2)C1 (single isomer, unassigned; (+)) [(+)-isomer, (+)-4-Amino-N-(1-cyclohexyl-3-pyrrolidinyl)-N-methylbenzamide]	NSE to 100	NSE to 200	
CN(C(=O)c1ccc(N)cc1)C1CCN(C2CCCCC2)C1 (single isomer, unassigned; (-)) [(-)-isomer, (-)-4-amino-N-(1-cyclohexyl-3-pyrrolidinyl)-N-methylbenzamide]			~80 mg/kg
